Entries after “also recorded” stand apart in the source; their conditions may differ.

In general, Kd refers to a measure of binding affinity in units of concentration. The term inhibition denotes the relative decrease from the control value, in per cent.

Series [1] concerns the target T1, human cytochrome P450 17A1 (Homo sapiens, UniProt P05093).
T1 construct: made in house
T1 sequence (P05093 1-508): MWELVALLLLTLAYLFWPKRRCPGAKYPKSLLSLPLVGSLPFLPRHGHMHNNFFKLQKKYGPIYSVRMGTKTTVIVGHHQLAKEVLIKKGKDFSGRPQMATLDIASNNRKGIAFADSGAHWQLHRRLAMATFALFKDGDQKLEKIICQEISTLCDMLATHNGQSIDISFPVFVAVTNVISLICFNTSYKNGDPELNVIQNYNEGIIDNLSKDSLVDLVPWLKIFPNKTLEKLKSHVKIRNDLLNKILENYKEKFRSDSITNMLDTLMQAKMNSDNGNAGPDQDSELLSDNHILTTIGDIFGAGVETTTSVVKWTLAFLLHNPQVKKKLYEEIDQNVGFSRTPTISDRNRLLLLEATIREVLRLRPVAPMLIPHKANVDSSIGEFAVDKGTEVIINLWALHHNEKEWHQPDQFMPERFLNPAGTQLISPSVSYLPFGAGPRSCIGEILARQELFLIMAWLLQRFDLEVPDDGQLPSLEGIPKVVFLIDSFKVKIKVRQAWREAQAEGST
Kind of series: Spectral binding assay (CYP17A1 ligand binding). To be noted: purified recombinant human CYP17A1, spectral titration. From the text:
The target compounds were initially tested for binding mode and affinity for CYP17A1 using a spectral binding assay. This assay can distinguish the mode of interaction, with a blue shift of the Soret absorbance occurring when ligand displaces water from the heme iron to generate a five-coordinate iron without direct coordination to the heme iron (type I, similar to most substrates) or a red shift of the Soret peak when the ligand nitrogen replaces the water to directly interact with the six-coordinate iron (type II, similar to many inhibitors). […] This 3-pyridyl fragment is also found in abiraterone.
Initial ligand binding was evaluated by measuring absorbance changes in CYP17A1 upon addition of ligands. Purified recombinant human cytochrome P450 17A1 enzyme (1 µM) in buffer (25 mM potassium phosphate, pH 7.4, 200 mM NaCl, 20% glycerol) was titrated with ligands. Ligands were dissolved in DMSO and added to three concentrations (500, 1000, and 2000 nM). The spectral intensity difference (ΔA) was measured as difference between […]. The Amin was typically at ~410 nm and Amax at ~440 nm for the type II changes observed for these ligands.
S2. Binding spectra and CYP IC50 curves
Difference spectrum of cytochrome P450 17A1 with vs. without compound 1a (2 µM).
All compounds are type II and display the same shift as the example above.
(1 picture or pasted object on this page, not shown here)

A further series concerns DU145 cells. As to the kind of experiment: Prostate cancer cell line proliferation screening (GR), DU145. The format is cell-based, human. Here is the method: (§1) Next, we tested the effect of compounds 1a–1e on prostate cancer derived cell lines. The anti-proliferative activity was determined in vitro by adding 10 µM compound to each of three prostate cancer cell lines (LNCaP, DU145, and PC3). As an additional comparison, immortalized non-cancerous fibroblasts (BJ hTERT) were used. These cancer cell lines are considered the classic standard of PCa cell culture. Since these cell lines grew at very different rates, inhibition of growth rate (GR) was used as a metric. All compounds except 1e were non-toxic to non-cancerous cells. Compounds 1a and 1c were both cytotoxic in the PC3 cell line (Figure 3). […] DU145 cells were weakly affected by only compound 1e with growth rate inhibition more than 50% (GR < 0.5). […] We observed substantial susceptibility of PC3 cells in comparison to DU145 (see Supplementary Materials S3 for GR50 in PC3 cells). These two cell lines are similar in many respects. […]
(§2) Cells were grown to approximately 80% confluence in 150 mm culture dishes and harvested by 0.25% Trypsin/EDTA (Gibco) treatment. Released cells were counted and seeded in 384 well plates (Falcon, ref. 353962) in 30 µl media with a cell count of 1500 (BJ cells, PC-3) or and 3500 (LNCaP (Lund)) cells per well. […] The cells incubated for 24 h, after which cell counts in wells of one 384-well plate were determined as described below (time zero). […]

For a further series, the system named is BJ hTERT fibroblasts. Kind of series: Proliferation screening in non-cancerous fibroblasts. As to conditions: 10 µM, 48 h. The format is cell-based. As for the experimental part: as §1, §2
A further series relates to PC3 cells. Kind of series: Prostate cancer cell line proliferation screening (GR), PC3. The format is cell-based, human. To be noted: 10 µM, 48 h. Here is the method:
Next, we tested the effect of compounds 1a–1e on prostate cancer derived cell lines. The anti-proliferative activity was determined in vitro by adding 10 µM compound to each of three prostate cancer cell lines (LNCaP, DU145, and PC3). As an additional comparison, immortalized non-cancerous fibroblasts (BJ hTERT) were used. These cancer cell lines are considered the classic standard of PCa cell culture. Since these cell lines grew at very different rates, inhibition of growth rate (GR) was used as a metric. All compounds except 1e were non-toxic to non-cancerous cells. Compounds 1a and 1c were both cytotoxic in the PC3 cell line (Figure 3). […] DU145 cells were weakly affected by only compound 1e with growth rate inhibition more than 50% (GR < 0.5). […] We observed substantial susceptibility of PC3 cells in comparison to DU145 (see Supplementary Materials S3 for GR50 in PC3 cells). These two cell lines are similar in many respects. […] However, they differ in their origins, PC3 being derived from a lumbar vertebral metastatic prostate tumour and DU145 from a brain metastatic prostate tumour. […] By observing a uniform response of all cell lines used in the present study to 5-fluorouracil (5-FU), we were able to rule out any general cell dependent variability in chemosensitivity towards anti-metabolite treatment. Still, chemoresistance in PC3 and DU145 may be mediated by other mechanisms. While AR also functions as a tumour suppressor inhibiting cell proliferation, it is possible in AR deprived cells to observe growth inhibition when cells retain necessary coregulators. […]
as §2

Turning to `c1ccc2c(c1)ccn2-c1ccc(Nc2ccncc2)cc1` [Compound 1e], in series [1], the Kd turned out to be 120 ± 34 nM. Moreover, the “Growth rate inhibition value (GR) in DU145 cells” value in the series on DU145 cells (10 µM, 48 h) is on record as below 0.5. For the same molecule, in the series on DU145 cells (Homo sapiens, DU-145, 48 h, read-out: Growth rate inhibition in DU145 cells), the inhibition at 10 µM is above 50%.

With `c1cncc(Nc2ccc(-n3cnc4ccccc43)cc2)c1` [Compound 1c], the dissociation constant Kd in series [1] came out at 96 ± 22 nM. The “Toxicity to non-cancerous cells (BJ hTERT fibroblasts)” value with BJ hTERT fibroblasts is listed as “non-toxicity”. Also, the “Antiproliferative response in PC3 cells (growth rate inhibition, in words)” value with PC3 cells is “cytotoxic; also recorded: high cytotoxicity”.
